Our source for the fold induction values is patent US8759535B2, “Substituted fused imidazole derivatives, pharmaceutical compositions, and methods of use thereof” (High Point Pharmaceuticals, LLC, priority 2010, dated 2014).

The assay has as its system HMOX1. In words: HMOX1 Protein Assay (immunostaining of HO-1 in NHLF cells, GE InCell 1000). In kind it is cell-based. The note with it: Homo sapiens, fold change above DMSO treated cells, 16 h; for fold induction at 5 µM: 5 μM compound; for fold induction at 3 µM: 3 μM compound (asterisk). The method, boiled down: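 Fold induction of HO-1 over vehicle, normally at 5 μM compound (asterisk marks 3 μM), in 0.8% DMSO medium. Normal human lung fibroblasts were treated 16 h, then paraformaldehyde-fixed, anti-HO-1/Alexa 488 stained with Hoechst, and read by high-content imaging.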

Structures can show the parent of a compound that is named as a salt.

`CCn1c(Nc2nc3ccc(OC(F)(F)F)cc3s2)nc2cc(C(=O)O)ccc21` [Example 154, 1-Ethyl-2-(6-trifluoromethoxy-benzothiazol-2-ylamino)-1H-benzoimidazole-5-carboxylic acid]: the fold induction at 5 µM was 27.1. With `COCCOCCNC(=O)c1ccc2c(c1)nc(Nc1nc3ccc(C(F)(F)F)cc3s1)n2C` [Example 262, 1-Methyl-2-(6-trifluoromethyl-benzothiazol-2-ylamino)-1H-benzoimidazole-5-carboxylic acid [2-(2-methoxy-ethoxy)-ethyl]-amide], the fold induction at 3 µM amounted to 40. `Cn1c(Nc2nc3ccc(OC(F)(F)F)cc3s2)nc2cc(C(=O)NCCC#N)ccc21` [Example 212, 1-Methyl-2-(6-trifluoromethoxy-benzothiazol-2-ylamino)-1H-benzoimidazole-5-carboxylic acid (2-cyano-ethyl)-amide] gave a fold induction at 5 µM of 48.8. `COc1cc2c(cc1C(=O)NCC(C)O)nc(Nc1nc3ccc(OC(F)(F)F)cc3s1)n2C` (centres unmarked) [Example 68, 6-Methoxy-1-methyl-2-(6-trifluoromethoxy-benzothiazol-2-ylamino)-1H-benzoimidazole-5-carboxylic acid (2-hydroxy-propyl)-amide] yielded a fold induction at 5 µM of 21.1. Regarding `CCNC(=O)c1cc2nc(Nc3nc4ccc(OC(F)(F)F)cc4s3)n(C)c2cc1OC` [Example 64, 6-Methoxy-1-methyl-2-(6-trifluoromethoxy-benzothiazol-2-ylamino)-1H-benzoimidazole-5-carboxylic acid ethylamide], the fold induction at 5 µM came to 18.9. With `CNC(=O)c1ccc2c(c1)nc(Nc1nc3ccc(OC(F)(F)F)cc3s1)n2C` [Example 1, 1-Methyl-2-(6-trifluoromethoxy-benzothiazol-2-ylamino)-1H-benzoimidazole-5-carboxylic acid methyl amide], the fold induction at 5 µM came out at 19.4. As for `Cn1c(Nc2nc3ccc(Cl)cc3s2)nc2cc(C(=O)NCCCCCO)ccc21` [Example 227, 2-(6-Chloro-benzothiazol-2-ylamino)-1-methyl-1H-benzoimidazole-5-carboxylic acid (5-hydroxy-pentyl)-amide], the fold induction at 3 µM came to 14. On to `Cc1ccc2nc(Nc3nc4cc(C(=O)O)ccc4n3C)sc2c1` [Example 120, 1-Methyl-2-(6-methyl-benzothiazol-2-ylamino)-1H-benzimidazole-5-carboxylic acid], for which the fold induction at 5 µM is 1.7.

In the case of `CN(C)C(=O)CCNC(=O)c1ccc2c(c1)nc(Nc1nc3ccc(OC(F)(F)F)cc3s1)n2C` [Example 135, 1-Methyl-2-(6-trifluoromethoxy-benzothiazol-2-ylamino)-1H-benzimidazole-5-carboxylic acid (2-dimethylcarbamoyl-ethyl)-amide], the fold induction at 5 µM stood at 49.6. For `Cn1c(Nc2nc3ccc(OC(F)(F)F)cc3s2)nc2cc(C(=O)NCCC3CCOCC3)ccc21` [Example 264, 1-Methyl-2-(6-trifluoromethoxy-benzothiazol-2-ylamino)-1H-benzoimidazole-5-carboxylic acid [2-(tetrahydro-pyran-4-yl)-ethyl]-amide], the fold induction at 5 µM was 22.9. Compound `CCN(CC)CCCNC(=O)c1ccc2c(c1)nc(Nc1nc3ccc(C(F)(F)F)cc3s1)n2C` [Example 353, 1-Methyl-2-(6-trifluoromethyl-benzothiazol-2-ylamino)-1H-benzoimidazole-5-carboxylic acid (3-diethylamino-propyl)-amide] came in with a fold induction at 3 µM of 23.

Compound `CN1CCN(C(=O)CCNC(=O)c2ccc3c(c2)nc(Nc2nc4ccc(C(F)(F)F)cc4s2)n3C)CC1` [Example 375, 1-Methyl-2-(6-trifluoromethyl-benzothiazol-2-ylamino)-1H-benzoimidazole-5-carboxylic acid [3-(4-methyl-piperazin-1-yl)-3-oxo-propyl]-amide] registered a fold induction at 3 µM of 19.4. `COCCOCCNC(=O)c1ccc2c(c1)nc(Nc1nc3ccc(OC(F)(F)F)cc3s1)n2C` [Example 260, 1-Methyl-2-(6-trifluoromethoxy-benzothiazol-2-ylamino)-1H-benzoimidazole-5-carboxylic acid [2-(2-methoxy-ethoxy)-ethyl]-amide] came in with a fold induction at 5 µM of 27.1.

In turn, `COCCn1c(Nc2nc3ccc(OC(F)(F)F)cc3s2)nc2cc(C(=O)NCC(=O)N(C)C)ccc21` [Example 188, 1-(2-Methoxy-ethyl)-2-(6-trifluoromethoxy-benzothiazol-2-ylamino)-1H-benzoimidazole-5-carboxylic acid dimethylcarbamoylmethyl-amide] yielded a fold induction at 5 µM of 18.3.

`Cn1c(Nc2nc3ccc(C(F)(F)F)cc3s2)nc2cc(C(=O)NCC(=O)N3CCC[C@@H](O)C3)ccc21` [Example 432, 1-Methyl-2-(6-trifluoromethyl-benzothiazol-2-ylamino)-1H-benzoimidazole-5-carboxylic acid [2-((R)-3-hydroxy-piperidin-1-yl)-2-oxo-ethyl]-amide]: the fold induction at 3 µM came out at 27.3. As to `Cn1c(Nc2nc3ccc(OC(F)(F)F)cc3s2)nc2cc(C(=O)NCC(=O)N(CCO)CCO)ccc21` [Example 392, 1-Methyl-2-(6-trifluoromethoxy-benzothiazol-2-ylamino)-1H-benzoimidazole-5-carboxylic acid {[bis-(2-hydroxy-ethyl)-carbamoyl]-methyl}-amide], the fold induction at 5 µM was 24.9.

`CN1CC[C@@H](NC(=O)c2ccc3c(c2)nc(Nc2nc4ccc(Cl)cc4s2)n3C)C1` [Example 316, 2-(6-Chloro-benzothiazol-2-ylamino)-1-methyl-1H-benzoimidazole-5-carboxylic acid ((R)-1-methyl-pyrrolidin-3-yl)-amide] came in with a fold induction at 5 µM of 18.1. The same measure, in the same setting: as for `COC(=O)c1ccc2c(c1)nc(Nc1nc3cc(F)c(F)cc3s1)n2C` [Example 33, 2-(5,6-Difluoro-benzothiazol-2-ylamino)-1-methyl-1H-benzoimidazole-5-carboxylic acid methyl ester], the figure is 11.7; as for `CCOCCNC(=O)c1ccc2c(c1)nc(Nc1nc3ccc(OC(F)(F)F)cc3s1)n2C` [Example 4, 1-Methyl-2-(6-trifluoromethoxy-benzothiazol-2-ylamino)-1H-benzoimidazole-5-carboxylic acid (2-ethoxy-ethyl)-amide], 11.9. `Cn1c(Nc2nc3ccc(Cl)cc3s2)nc2cc(C(=O)NCCCCN)ccc21` [Example 347, 2-(6-Chloro-benzothiazol-2-ylamino)-1-methyl-1H-benzoimidazole-5-carboxylic acid (4-amino-butyl)-amide hydrochloride] returned a fold induction at 3 µM of 15.3. `Cn1c(Nc2nc3ccc(Cl)cc3s2)nc2cc(C(=O)N[C@@H]3CCNC3)ccc21` [Example 290, 2-(6-Chloro-benzothiazol-2-ylamino)-1-methyl-1H-benzoimidazole-5-carboxylic acid (R)-pyrrolidin-3-ylamide hydrochloride]: the fold induction at 5 µM is 22.5. Same read-out and setting: as for `COCCCNC(=O)c1ccc2c(c1)nc(Nc1nc3ccc(OC(F)(F)F)cc3s1)n2C` [Example 19, 1-Methyl-2-(6-trifluoromethoxy-benzothiazol-2-ylamino)-1H-benzoimidazole-5-carboxylic acid (3-methoxy-propyl)-amide], the figure is 21.1; as for `CN(C)CCOCCNC(=O)c1ccc2c(c1)nc(Nc1nc3ccc(Cl)cc3s1)n2C` [Example 274, 2-(6-Chloro-benzothiazol-2-ylamino)-1-methyl-1H-benzoimidazole-5-carboxylic acid [2-(2-dimethylamino-ethoxy)-ethyl]-amide], 65.9. In turn, `Cn1c(Nc2nc3ccc(Cl)cc3s2)nc2cc(C(=O)NCC(=O)N3CCCC3)ccc21` [Example 397, 2-(6-Chloro-benzothiazol-2-ylamino)-1-methyl-1H-benzoimidazole-5-carboxylic acid (2-oxo-2-pyrrolidin-1-yl-ethyl)-amide] returned a fold induction at 3 µM of 25. As to `CN[C@H]1CCN(C(=O)CNC(=O)c2ccc3c(c2)nc(Nc2nc4ccc(OC(F)(F)F)cc4s2)n3C)C1` [Example 414, 1-Methyl-2-(6-trifluoromethoxy-benzothiazol-2-ylamino)-1H-benzoimidazole-5-carboxylic acid [2-((S)-3-methylamino-pyrrolidin-1-yl)-2-oxo-ethyl]-amide hydrochloride], the fold induction at 5 µM was found to be 25.7.

`CC(O)CNC(=O)c1ccc2c(c1)nc(Nc1nc3ccc(OC(F)(F)F)cc3s1)n2C` (centres unmarked) [Example 21, 1-Methyl-2-(6-trifluoromethoxy-benzothiazol-2-ylamino)-1H-benzoimidazole-5-carboxylic acid (2-hydroxy-propyl)-amide] returned a fold induction at 5 µM of 19.6. Same read-out and setting: as for `CC(=O)NCCOCCNC(=O)c1ccc2c(c1)nc(Nc1nc3ccc(OC(F)(F)F)cc3s1)n2C` [Example 275, 1-Methyl-2-(6-trifluoromethoxy-benzothiazol-2-ylamino)-1H-benzoimidazole-5-carboxylic acid [2-(2-acetylamino-ethoxy)-ethyl]-amide], the figure is 77.4. Turning to `C[C@H](NC(=O)c1ccc2c(c1)nc(Nc1nc3ccc(Cl)cc3s1)n2C)C(=O)N1CCN(C)CC1` [Example 464, 2-(6-Chloro-benzothiazol-2-ylamino)-1-methyl-1H-benzoimidazole-5-carboxylic acid [(S)-1-methyl-2-(4-methyl-piperazin-1-yl)-2-oxo-ethyl]-amide], the fold induction at 3 µM was 27.2.

`Cn1c(Nc2nc3ccc(Cl)cc3s2)nc2cc(C(=O)NCCOCCCO)ccc21` [Example 248, 2-(6-Chloro-benzothiazol-2-ylamino)-1-methyl-1H-benzoimidazole-5-carboxylic acid [2-(3-hydroxy-propoxy)-ethyl]-amide] displayed a fold induction at 5 µM of 58.7.

What is called fold induction is the signal under treatment as a multiple of the control signal. Higher therefore signals a large rise in signal.
